Data published in patent US20210338779A1, “THERAPEUTIC USE OF GLUCAGON AND COMBINATION INCLUDING THE SAME” (HANMI PHARM. CO., LTD, priority 2018, published 2021).

Columns and labels:
Format in all cases: in vivo, Mouse
[1] = tested on: Mice with high-fat-diet-induced obesity; test: Experimental Example 2: co-administration of long-acting glucagon derivative and oral diabetes drug in mice with high-fat-diet-induced obesity; settings: 28 days; long-acting glucagon derivative 1.2 nmol/kg once every 2 days; Sitagliptin 49.2 mg/kg, Empagliflozin 12.3 mg/kg once a day; SAXENDA 50 nmol/kg twice a day
Method: (§1) Mice with high-fat-diet-induced obesity, which have been widely used as obesity animal models, were used for this experiment. The body weights of the mice were in the range of about 50 g to 55 g. During this experiment, mice were housed 7 mice per each group and were given ad libitum access to water. Lights were turned off between 6 P.M. and 6 A. M.
Test groups fed with high-fat diet include: Group 1: administered with an excipient not including long-acting glucagon (5 mL/kg, injection once every 2 days)-control (Vehicle), Group 2: administered with a GLP-1 analog obesity drug (SAXENDA®, 50 nmol/kg, injection twice a day), Group 3: administered with the long-acting glucagon derivative (1.2 nmol/kg, injection once every 2 days), Group 4: administered with a DPP-4 inhibitor (Sitagliptin, 49.2 mg/kg, injection once a day), Group 5: administered with an SGLT-2 inhibitor (Empagliflozin, 12.3 mg/kg, injection once a day), Group 6: co-administered with Sitagliptin (49.2 mg/kg, injection once a day) and the long-acting glucagon derivative (1.2 nmol/kg, injection once every 2 days), and Group 7: Empagliflozin (12.3 mg/kg, injection once a day) and the long-acting glucagon derivative (1.2 nmol/kg, injection once every 2 days). The long-acting glucagon derivative used in this experiment was the long-acting derivative according to Example 5.
(§2) The experiment was terminated on the 28th day, and changes in body weight of the mice in each group were measured at 2-day intervals during the progress of the experiment, and changes in blood glucose level were measured before administration and at the 1st, 4th, 7th, 10th, 13th, 16th, 19th, 22nd, 25th, and 28th days after administration. Upon termination of the experiment, the weight of fat and HOMA-IR were measured.
(§3) Statistical analysis was performed by comparing the excipient group (control) with the test groups by 1-way ANOVA.

[2] = tested on: Mice with high-fat-diet-induced obesity; test: Experimental Example 1: body weight, fat, HOMA-IR and blood glucose in mice with high-fat-diet-induced obesity; settings: 28 days; long-acting glucagon derivative 1.2 nmol/kg once every 2 days; SAXENDA 50 nmol/kg twice a day; Sitagliptin 49.2 mg/kg once a day
Method: as §1
Test groups fed with high-fat diet include: Group 1: administered with an excipient not including long-acting glucagon (5 mL/kg, injection once every 2 days)-control (Vehicle), Group 2: administered with a GLP-1 analog obesity drug (SAXENDA®, 50 nmol/kg, injection twice a day), Group 3: administered with the long-acting glucagon derivative (1.2 nmol/kg, injection once every 2 days), and Group 4: administered with a DPP-4 inhibitor (Sitagliptin, 49.2 mg/kg, injection once a day).
as §2, §3

[3] = tested on: Mice with high-fat-diet-induced obesity; test: Experimental Example 3: long-acting glucagon derivative and GLP-1 analogs, alone and co-administered, in mice with high-fat-diet-induced obesity; settings: 28 days; glucagon long-acting derivative 2.0 nmol/kg once every 2 days; SAXENDA 50 nmol/kg twice a day; OZEMPIC 20.5 nmol/kg, TRULICITY 2.7 nmol/kg once every 2 days
Method: Mice with high-fat-diet-induced obesity, which have been widely used as obesity animal models, were used for this experiment. The body weights of the mice were in the range of about 50 g to 55 g. During this experiment, mice were housed 7 mice per each group and were given ad libitum access to water. Light was turned off between 6 P.M. and 6 A.M. […]
The experiment was terminated on the 28th day, and changes in body weight of the mice in each group were measured at 2-day intervals during the progress of the experiment. Upon termination of the experiment, blood lipid levels, weights of fat, and blood glucose levels were measured. […]

Compound	weight loss (change in body weight) [1] [%]	change in body weight compared to body weight before administration [2] [%]	weight loss compared to the body weight before administration [3] [%]
OC[C@H]1O[C@@H](c2ccc(Cl)c(Cc3ccc(O[C@H]4CCOC4)cc3)c2)[C@H](O)[C@@H](O)[C@@H]1O [Empagliflozin]	−10.4	–	–
N[C@@H](CC(=O)N1CCn2c(nnc2C(F)(F)F)C1)Cc1cc(F)c(F)cc1F [Sitagliptin]	−0.1	−0.1	–
SAXENDA®: GLP-1 analog obesity drug (HAEGTFTSDVSSYLEGQAAKEFIAWLVRGRG; chains of the INN, looked up)	−16.3	−16.3	−18.10
TRULICITY®: long-acting GLP-1 analog	–	–	−3.81
